Test results: patent US4172891A, “Cephalosporins” (Takeda Chemical Industries, Inc., priority 1976, dated 1979)
Converted amounts (≈) assume the structure as drawn. Like-named read-outs stand apart in the source and are kept apart here.

How the values were obtained:
P. morganii IFO 3168 = experiment: Minimum Inhibitory Concentration, agar dilution, P. morganii IFO 3168; format: cell-based, Proteus morganii; conditions: Morganella morganii
Text: (§1) […]. | Minimum Inhibitory Concentrations (mcg/ml, agar dilution)

Cit. freundii GN 1706 = experiment: Minimum Inhibitory Concentration, agar dilution, Cit. freundii GN 1706; format: cell-based; conditions: Citrobacter freundii
Text: as §1

P. rettgeri 8(TNO 336) = experiment: Minimum Inhibitory Concentration, agar dilution, P. rettgeri 8(TNO 336); format: cell-based, Proteus rettgeri; conditions: Providencia rettgeri
Text: as §1

P. rettgeri GN 4733 = experiment: Minimum Inhibitory Concentration, agar dilution, P. rettgeri GN 4733; format: cell-based, Proteus rettgeri; conditions: Providencia rettgeri
Text: as §1

K. pneumoniae GN 3835 = experiment: Minimum Inhibitory Concentration, agar dilution, K. pneumoniae GN 3835; format: cell-based; conditions: Klebsiella pneumoniae
Text: as §1

P. mirabilis GN 4359 = experiment: Minimum Inhibitory Concentration, agar dilution, P. mirabilis GN 4359; format: cell-based; conditions: Proteus mirabilis
Text: as §1

Cit. freundii GN 99 = experiment: Minimum Inhibitory Concentration, agar dilution, Cit. freundii GN 99; format: cell-based; conditions: Citrobacter freundii
Text: as §1

Escherichia coli O-111 = experiment: Comparative protection test on infected mice; format: in vivo; conditions: O111, sc, 168 h; male ICR/SLC mice infected intraperitoneally with Escherichia coli O-111; single subcutaneous dose immediately after challenge; 7 days observation
Text: (§2) Following each example is a tabulation of the minimal inhibitory concentrations (MIC) of the present compound [I] obtained in accordance with the particular example against several representative gram-negative bacteria and the corresponding concentrations of cephaloridine [7-(2-thienylacetamido)-3-(1-pyridyl)methyl-3-cephem-4-carboxylic acid betaine] and cefazolin [sodium 7-(1H-tetrazol-1-yl)acetamido-3-(2-methyl-1,3,4-thiadiazol-5-yl)thiomethyl-3-cephem-4-carboxylate], both of which are typical cephalosporins commercially available and clinically accepted nowadays [The New England Journal of Medicine 294, 24 (1976) and Journal of Pharmaceutical Science 64, 1899 (1975)]. There are also shown the effective doses of the typical compounds of this invention on the mice infected with Escherichia coli in comparison with that of cephaloridine.
Comparative protection tests of the compounds of this
invention and cephaloridine on infected mice
*Test animals: male mice (ICR/SLC) 5 mice per group per single dose
Infection: intraperitoneally with Escherichia coli O-111
Administration: a single subcutaneous dose immediately after challenge
Observation period: 7 days

Ent. cloacae IFO 12937 = experiment: Minimum Inhibitory Concentration, agar dilution, Ent. cloacae IFO 12937; format: cell-based; conditions: Enterobacter cloacae
E. coli O-111 = experiment: Minimum Inhibitory Concentration, agar dilution, E. coli O-111; format: cell-based; conditions: Escherichia coli, O111; E. coli O-111; agar dilution; read-out: Minimum Inhibitory Concentration
Text: as §2
Minimum Inhibitory Concentrations (mcg/ml, agar dilution)

E. coli T-7 = experiment: Minimum Inhibitory Concentration, agar dilution, E. coli T-7; format: cell-based; conditions: Escherichia coli
Text: as §1

P. vulgaris IFO 3988 = experiment: Minimum Inhibitory Concentration, agar dilution, P. vulgaris IFO 3988; format: cell-based; conditions: Proteus vulgaris
Text: as §1

K. pneumoniae DT = experiment: Minimum Inhibitory Concentration, agar dilution, K. pneumoniae DT; format: cell-based; conditions: Klebsiella pneumoniae, read-out: Minimum Inhibitory Concentration
Text: as §1

E. coli NIHJ = experiment: Minimum Inhibitory Concentration, agar dilution, E. coli NIHJ; format: cell-based; conditions: Escherichia coli, read-out: Minimum Inhibitory Concentration
Text: as §1

N=c1scc(CC(=O)NC2C(=O)N3C(C(=O)[O-])=C(C[n+]4ccc(C(N)=O)cc4)CSC23)n1O (stereo not shown) [Example 10, 7-[2-(2-imino-3-hydroxy-4-thiazolin-4-yl)acetamido]-3-(4-carbamoylpyridinium)methyl-3-cephem-4-carboxylic acid betain]
MIC (P. morganii IFO 3168; IFO3168, P. morganii IFO 3168, agar dilution, read-out: Minimum Inhibitory Concentration): 3.13 µg/mL (≈ 6.38 µM)
MIC (Cit. freundii GN 1706; GN1706, Cit. freundii GN 1706, agar dilution, read-out: Minimum Inhibitory Concentration): 12.5 µg/mL (≈ 25.5 µM)
MIC (P. rettgeri 8(TNO 336); P. rettgeri 8(TNO 336), read-out: Minimum Inhibitory Concentration): ≤ 0.2 µg/mL
MIC (P. rettgeri GN 4733; GN4733, P. rettgeri GN 4733, agar dilution, read-out: Minimum Inhibitory Concentration): ≤ 0.2 µg/mL
MIC (K. pneumoniae GN 3835; GN3835, K. pneumoniae GN 3835, agar dilution, read-out: Minimum Inhibitory Concentration): 1.56 µg/mL (≈ 3.18 µM)
MIC (P. mirabilis GN 4359; GN4359, P. mirabilis GN 4359, agar dilution, read-out: Minimum Inhibitory Concentration): 0.78 µg/mL (≈ 1.59 µM)
MIC (Cit. freundii GN 99; GN99, Cit. freundii GN 99, agar dilution, read-out: Minimum Inhibitory Concentration): 1.56 µg/mL (≈ 3.18 µM)
ED50 (Escherichia coli O-111): 0.089 mg/kg
MIC (Ent. cloacae IFO 12937; IFO12937, Ent. cloacae IFO 12937, agar dilution, read-out: Minimum Inhibitory Concentration): 25 µg/mL (≈ 51 µM)
MIC (E. coli O-111): 0.39 µg/mL (≈ 0.795 µM)
MIC (E. coli T-7; T7, E. coli T-7, agar dilution, read-out: Minimum Inhibitory Concentration): 25 µg/mL (≈ 51 µM)
MIC (P. vulgaris IFO 3988; IFO3988, P. vulgaris IFO 3988, agar dilution, read-out: Minimum Inhibitory Concentration): 0.78 µg/mL (≈ 1.59 µM)
MIC (K. pneumoniae DT; K. pneumoniae DT, agar dilution): 0.78 µg/mL (≈ 1.59 µM)
MIC (E. coli NIHJ; E. coli NIHJ, agar dilution): 1.56 µg/mL (≈ 3.18 µM)

N=c1scc(CC(=O)NC2C(=O)N3C(C(=O)[O-])=C(COC(N)=O)CS[C@H]23)n1O.[Na+] (stereo partly shown) [Example 13, sodium 7-[2-(2-imino-3-hydroxy-4-thiazolin-4-yl)acetamido]-3-(carbamoyloxymethyl)-3-cephem-4-carboxylate]
MIC (P. morganii IFO 3168; IFO3168, read-out: Minimum Inhibitory Concentration): 0.78 µg/mL
MIC (Cit. freundii GN 1706; GN1706, read-out: Minimum Inhibitory Concentration): 3.13 µg/mL
MIC (P. rettgeri 8(TNO 336); read-out: Minimum Inhibitory Concentration, P. rettgeri 8(TNO 336)): ≤ 0.012 µg/mL
MIC (P. rettgeri GN 4733; GN4733, read-out: Minimum Inhibitory Concentration): 0.2 µg/mL
MIC (K. pneumoniae GN 3835; GN3835, read-out: Minimum Inhibitory Concentration): 0.2 µg/mL
MIC (P. mirabilis GN 4359; GN4359, read-out: Minimum Inhibitory Concentration): 0.2 µg/mL
MIC (Cit. freundii GN 99; GN99, read-out: Minimum Inhibitory Concentration): 0.78 µg/mL
ED50 (Escherichia coli O-111): 0.084 mg/kg
MIC (Ent. cloacae IFO 12937; IFO12937, read-out: Minimum Inhibitory Concentration): 50 µg/mL
MIC (E. coli O-111): 0.1 µg/mL
MIC (E. coli T-7; T7, read-out: Minimum Inhibitory Concentration): 1.56 µg/mL
MIC (P. vulgaris IFO 3988; IFO3988, read-out: Minimum Inhibitory Concentration): 0.39 µg/mL
MIC (K. pneumoniae DT): 0.2 µg/mL
MIC (E. coli NIHJ): 0.2 µg/mL
